# Test results published in ChEMBL document CHEMBL4673219, “Novel 5,6-disubstituted pyrrolo[2,3-d]pyrimidine derivatives as broad spectrum antiproliferative agents: Synthesis, cell based assays, kinase profile and molecular docking study” (Bioorg Med Chem, 2018).
# What was measured:
# [1] = target: Fibroblast growth factor receptor 2 (Homo sapiens) (UniProt P21802); experiment: Inhibition of human FGFR2 at 10 uM using myelin basic protein as substrate incubated for 40 mins in presence of [gamma33P]ATP by scintillation counting method relative to control
# Fibroblast growth factor receptor 2 (Homo sapiens), sequence (P21802 22-821 limits assumed): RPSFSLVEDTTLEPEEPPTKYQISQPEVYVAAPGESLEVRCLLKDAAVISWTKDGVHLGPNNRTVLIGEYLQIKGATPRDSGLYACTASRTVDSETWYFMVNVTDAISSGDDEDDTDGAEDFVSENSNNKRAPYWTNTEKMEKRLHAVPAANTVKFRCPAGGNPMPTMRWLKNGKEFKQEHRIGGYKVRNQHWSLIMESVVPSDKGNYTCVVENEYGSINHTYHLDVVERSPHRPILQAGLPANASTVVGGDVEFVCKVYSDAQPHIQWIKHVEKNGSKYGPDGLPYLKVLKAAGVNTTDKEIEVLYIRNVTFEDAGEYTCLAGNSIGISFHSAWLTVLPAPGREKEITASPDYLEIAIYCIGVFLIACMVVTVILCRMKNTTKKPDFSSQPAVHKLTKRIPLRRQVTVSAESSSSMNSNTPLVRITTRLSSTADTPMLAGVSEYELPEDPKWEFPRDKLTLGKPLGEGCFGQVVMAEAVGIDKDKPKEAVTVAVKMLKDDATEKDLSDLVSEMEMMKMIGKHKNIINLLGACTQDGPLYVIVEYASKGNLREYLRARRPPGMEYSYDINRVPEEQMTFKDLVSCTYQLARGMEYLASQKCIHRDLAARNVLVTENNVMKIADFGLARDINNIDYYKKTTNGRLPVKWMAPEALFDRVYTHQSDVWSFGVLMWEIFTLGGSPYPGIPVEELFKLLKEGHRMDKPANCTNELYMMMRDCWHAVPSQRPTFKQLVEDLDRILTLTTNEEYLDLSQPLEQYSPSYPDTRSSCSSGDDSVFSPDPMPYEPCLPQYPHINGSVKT
# OVCAR-3 = experiment: Growth inhibition of human OVCAR-3 cells assessed as growth percentage at 10 uM incubated for 48 hrs by sulforhodamine B assay relative to control; assay type: functional; settings: read-out: Activity
# NCI-H460 = experiment: Growth inhibition of human NCI-H460 cells assessed as growth percentage at 10 uM incubated for 48 hrs by sulforhodamine B assay relative to control; assay type: functional; settings: read-out: Activity
# LOX IMVI = experiment: Growth inhibition of human LOX IMVI cells assessed as growth percentage at 0.01 uM incubated for 48 hrs by sulforhodamine B assay relative to control; assay type: functional; settings: read-out: Activity
# SK-MEL-5 [2] = experiment: Growth inhibition of human SK-MEL-5 cells assessed as growth percentage at 10 uM incubated for 48 hrs by sulforhodamine B assay relative to control; assay type: functional; settings: read-out: Activity
# K562 [3] = experiment: Growth inhibition of human K562 cells assessed as growth percentage at 100 uM incubated for 48 hrs by sulforhodamine B assay relative to control; assay type: functional; settings: read-out: Activity
# 786-0 = experiment: Growth inhibition of human 786-0 cells assessed as growth percentage at 10 uM incubated for 48 hrs by sulforhodamine B assay relative to control; assay type: functional; settings: read-out: Activity
# SK-MEL-5 [4] = experiment: Growth inhibition of human SK-MEL-5 cells incubated for 48 hrs by sulforhodamine B assay; assay type: functional; settings: for CC50: read-out: LC50 (the source's name)
# SK-MEL-5 [5] = experiment: Growth inhibition of human SK-MEL-5 cells assessed as growth percentage at 0.1 uM incubated for 48 hrs by sulforhodamine B assay relative to control; assay type: functional; settings: read-out: Activity
# HT-29 [6] = experiment: Growth inhibition of human HT-29 cells assessed as growth percentage at 0.1 uM incubated for 48 hrs by sulforhodamine B assay relative to control; assay type: functional; settings: read-out: Activity
# HCT-116 = experiment: Antiproliferative activity against human HCT-116 cells assessed as cell growth inhibition measured after 72 hrs by MTT assay; assay type: functional
# MDA-MB-231 = experiment: Growth inhibition of human MDA-MB-231/ATCC cells incubated for 48 hrs by sulforhodamine B assay; assay type: functional; settings: Homo sapiens
# U-251 = experiment: Growth inhibition of human U-251 cells assessed as growth percentage at 1 uM incubated for 48 hrs by sulforhodamine B assay relative to control; assay type: functional; settings: read-out: Activity
# CCRF-CEM [7] = experiment: Growth inhibition of human CCRF-CEM cells assessed as growth percentage at 10 uM incubated for 48 hrs by sulforhodamine B assay relative to control; assay type: functional; settings: read-out: Activity
# CCRF-CEM [8] = experiment: Growth inhibition of human CCRF-CEM cells assessed as growth percentage at 0.01 uM incubated for 48 hrs by sulforhodamine B assay relative to control; assay type: functional; settings: read-out: Activity
# OVCAR-4 = experiment: Growth inhibition of human OVCAR-4 cells assessed as growth percentage at 1 uM incubated for 48 hrs by sulforhodamine B assay relative to control; assay type: functional; settings: read-out: Activity
# UACC-257 [9] = experiment: Growth inhibition of human UACC-257 cells incubated for 48 hrs by sulforhodamine B assay; assay type: functional; settings: Homo sapiens, UACC-257, 48 h
# SK-OV-3 = experiment: Growth inhibition of human SK-OV-3 cells assessed as growth percentage at 10 uM incubated for 48 hrs by sulforhodamine B assay relative to control; assay type: functional; settings: read-out: Activity
# K562 [10] = experiment: Growth inhibition of human K562 cells incubated for 48 hrs by sulforhodamine B assay; assay type: functional; settings: Homo sapiens, K562, 48 h
# SNB-75 = experiment: Growth inhibition of human SNB-75 cells assessed as growth percentage at 10 uM incubated for 48 hrs by sulforhodamine B assay relative to control; assay type: functional; settings: read-out: Activity
# Malme-3M = experiment: Growth inhibition of human Malme-3M cells incubated for 48 hrs by sulforhodamine B assay; assay type: functional; settings: Homo sapiens, Malme-3M
# UACC-257 [11] = experiment: Growth inhibition of human UACC-257 cells assessed as growth percentage at 0.1 uM incubated for 48 hrs by sulforhodamine B assay relative to control; assay type: functional; settings: read-out: Activity
# HCT-15 [12] = experiment: Growth inhibition of human HCT-15 cells assessed as growth percentage at 100 uM incubated for 48 hrs by sulforhodamine B assay relative to control; assay type: functional; settings: read-out: Activity
# T47D [13] = experiment: Growth inhibition of human T47D cells assessed as growth percentage at 0.01 uM incubated for 48 hrs by sulforhodamine B assay relative to control; assay type: functional; settings: read-out: Activity
# HCT-15 [14] = experiment: Growth inhibition of human HCT-15 cells assessed as growth percentage at 10 uM incubated for 48 hrs by sulforhodamine B assay relative to control; assay type: functional; settings: read-out: Activity
# HT-29 [15] = experiment: Growth inhibition of human HT-29 cells assessed as growth percentage at 10 uM incubated for 48 hrs by sulforhodamine B assay relative to control; assay type: functional; settings: read-out: Activity
# NCI-H23 = experiment: Growth inhibition of human NCI-H23 cells assessed as growth percentage at 10 uM incubated for 48 hrs by sulforhodamine B assay relative to control; assay type: functional; settings: read-out: Activity
# UACC-62 = experiment: Growth inhibition of human UACC-62 cells assessed as growth percentage at 1 uM incubated for 48 hrs by sulforhodamine B assay relative to control; assay type: functional; settings: read-out: Activity
# T47D [16] = experiment: Growth inhibition of human T47D cells assessed as growth percentage at 10 uM incubated for 48 hrs by sulforhodamine B assay relative to control; assay type: functional; settings: read-out: Activity
# OVCAR-8 [17] = experiment: Growth inhibition of human OVCAR-8 cells assessed as growth percentage at 0.1 uM incubated for 48 hrs by sulforhodamine B assay relative to control; assay type: functional; settings: read-out: Activity
# MCF7 [18] = experiment: Growth inhibition of human MCF7 cells assessed as growth percentage at 100 uM incubated for 48 hrs by sulforhodamine B assay relative to control; assay type: functional; settings: read-out: Activity
# MCF7 [19] = experiment: Growth inhibition of human MCF7 cells assessed as growth percentage at 0.01 uM incubated for 48 hrs by sulforhodamine B assay relative to control; assay type: functional; settings: read-out: Activity
# SK-MEL-28 = experiment: Growth inhibition of human SK-MEL-28 cells incubated for 48 hrs by sulforhodamine B assay; assay type: functional
# K562 [20] = experiment: Growth inhibition of human K562 cells assessed as growth percentage at 0.1 uM incubated for 48 hrs by sulforhodamine B assay relative to control; assay type: functional; settings: read-out: Activity
# NCI/ADR-RES = experiment: Growth inhibition of human NCI/ADR-RES cells assessed as growth percentage at 10 uM incubated for 48 hrs by sulforhodamine B assay relative to control; assay type: functional; settings: read-out: Activity
# A549 = experiment: Growth inhibition of human A549/ATCC cells assessed as growth percentage at 10 uM incubated for 48 hrs by sulforhodamine B assay relative to control; assay type: functional; settings: read-out: Activity
# OVCAR-8 [21] = experiment: Growth inhibition of human OVCAR-8 cells assessed as growth percentage at 1 uM incubated for 48 hrs by sulforhodamine B assay relative to control; assay type: functional; settings: read-out: Activity
# PC-3 = experiment: Growth inhibition of human PC-3 cells assessed as growth percentage at 10 uM incubated for 48 hrs by sulforhodamine B assay relative to control; assay type: functional; settings: read-out: Activity
structure (smiles),measurement,setting,value
Nc1nc2[nH]c(CN3CCN(c4cc(Cl)cc(Cl)c4)CC3)c(CN3CCN(c4cc(Cl)cc(Cl)c4)CC3)c2c(=O)[nH]1,inhibition,[1],-0.49%
same,growth at 10 µM,OVCAR-3,89.7%
same,growth at 10 µM,NCI-H460,79.4%
same,growth at 0.01 µM,LOX IMVI,99%
same,growth at 10 µM,SK-MEL-5 [2],91%
same,growth at 100 µM,K562 [3],3%
same,growth at 10 µM,786-0,72.6%
same,CC50,SK-MEL-5 [4]; 48 h,2890 nM
same,GI50,"SK-MEL-5 [4]; Homo sapiens, SK-MEL-5",1630 nM
same,TGI,"SK-MEL-5 [4]; Homo sapiens, SK-MEL-5",3070 nM
same,CC50,"SK-MEL-5 [4]; Homo sapiens, SK-MEL-5, 48 h",5760 nM
same,growth at 0.1 µM,SK-MEL-5 [5],98%
same,growth at 0.1 µM,HT-29 [6],110%
same,GI50,HCT-116,2890 nM
same,TGI,MDA-MB-231; MDA-MB-231,3980 nM
same,GI50,"MDA-MB-231; MDA-MB-231, 48 h",2010 nM
same,growth at 1 µM,U-251,90%
same,growth at 10 µM,CCRF-CEM [7],45.1%
same,growth at 0.01 µM,CCRF-CEM [8],99%
same,growth at 1 µM,OVCAR-4,83%
same,GI50,UACC-257 [9],2060 nM
same,TGI,UACC-257 [9],4760 nM
same,growth at 10 µM,SK-OV-3,90.2%
same,GI50,K562 [10],2330 nM
same,growth at 10 µM,SNB-75,63.7%
same,TGI,Malme-3M,3930 nM
same,GI50,Malme-3M; 48 h,2000 nM
same,growth at 0.1 µM,UACC-257 [11],99%
same,growth at 100 µM,HCT-15 [12],-49%
same,growth at 0.01 µM,T47D [13],91%
same,growth at 10 µM,HCT-15 [14],67.4%
same,growth at 10 µM,HT-29 [15],33.4%
same,growth at 10 µM,NCI-H23,85.7%
same,growth at 1 µM,UACC-62,96%
same,growth at 10 µM,T47D [16],62.9%
same,growth at 0.1 µM,OVCAR-8 [17],97%
same,growth at 100 µM,MCF7 [18],-48%
same,growth at 0.01 µM,MCF7 [19],86%
same,GI50,SK-MEL-28,1790 nM
same,TGI,SK-MEL-28,3620 nM
same,growth at 0.1 µM,K562 [20],96%
same,growth at 10 µM,NCI/ADR-RES,87.6%
same,growth at 10 µM,A549,72.7%
same,growth at 1 µM,OVCAR-8 [21],96%
same,growth at 10 µM,PC-3,59.6%
